In the oligonucleotide strings, read from the 5' end, every base follows the letter of its sugar. An asterisk marks phosphorothioate; unmarked linkages are phosphodiester. Other units and linkages are bracketed, terminal groups are in braces. A string of capitals states the bases alone. d = 2'-deoxy (DNA)
Tested on: human meltrin α RNA
Assay: Suppression of human meltrin α expression by antisense compound in RD cell (real time PCR)
Type: cell-based
Conditions: 50 nM; RD cell; corrected by GAPDH
In short: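 RD cells transfected with heat-denatured antisense oligodeoxynucleotide plus Lipofectin in Opti-MEM for 4 h at 37° C, then cultured 18 h. Meltrin α RNA quantified by TaqMan RT-PCR against plasmid standard curve, GAPDH-corrected; suppression vs untreated cells, rated +/++/+++ for ≥30/50/70%.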

Row | Substance | suppression rate of expression, 50 nM
1 | H144 + 8: tctgcaggcagaggcttctg (TCTGCAGGCAGAGGCTTCTG; antisense; DNA, all phosphorothioate, methylation of C not given here) | + (“+” when the suppression rate was at least 30%)
2 | H013: ctgcaccatcccacgcgggc (CTGCACCATCCCACGCGGGC; antisense; DNA, all phosphorothioate, methylation of C not given here) | + (“+” when the suppression rate was at least 30%)
3 | H144 + 17: gccagaggatctgcaggcag (GCCAGAGGATCTGCAGGCAG; antisense; DNA, all phosphorothioate, methylation of C not given here) | +++ (“+++” when the suppression rate was at least 70%)
4 | H135: aacattctgacactgcagca (AACATTCTGACACTGCAGCA; antisense; DNA, all phosphorothioate, methylation of C not given here) | + (“+” when the suppression rate was at least 30%)
5 | H136 + 17: gagggacattcaggccgttg (GAGGGACATTCAGGCCGTTG; antisense; DNA, all phosphorothioate, methylation of C not given here) | + (“+” when the suppression rate was at least 30%)
6 | H130 + 15: tggccgaggtgagcctgaca (TGGCCGAGGTGAGCCTGACA; antisense; DNA, all phosphorothioate, methylation of C not given here) | ++ (“++” when the suppression rate was at least 50%)
7 | H144 + 15: cagaggatctgcaggcagag (CAGAGGATCTGCAGGCAGAG; antisense; DNA, all phosphorothioate, methylation of C not given here) | + (“+” when the suppression rate was at least 30%)
8 | H131 + 10: aggccttttccaaggtggcc (AGGCCTTTTCCAAGGTGGCC; antisense; DNA, all phosphorothioate, methylation of C not given here) | + (“+” when the suppression rate was at least 30%)
9 | H006: tttccccccgtgtgtgtgcg (TTTCCCCCCGTGTGTGTGCG; antisense; DNA, all phosphorothioate, methylation of C not given here) | ++ (“++” when the suppression rate was at least 50%)

Same assay, conditions: 200 nM; RD cell; corrected by GAPDH

Row | Substance | suppression rate of expression, 200 nM
10 | H013: ctgcaccatcccacgcgggc (CTGCACCATCCCACGCGGGC; antisense; DNA, all phosphorothioate, methylation of C not given here) | ++ (“++” when the suppression rate was at least 50%)
11 | H019: ggcgcgagcagagcaccggc (GGCGCGAGCAGAGCACCGGC; antisense; DNA, all phosphorothioate, methylation of C not given here) | ++ (“++” when the suppression rate was at least 50%)
12 | H169: catcctgtccagaatcccat (dC*dA*dT*dC*dC*dT*dG*dT*dC*dC*dA*dG*dA*dA*dT*dC*dC*dC*dA*dT; antisense) | ++ (“++” when the suppression rate was at least 50%)
13 | H132: cttcctcatcaggccttttc (CTTCCTCATCAGGCCTTTTC; antisense; DNA, all phosphorothioate, methylation of C not given here) | ++ (“++” when the suppression rate was at least 50%)
14 | H040: ttgtatctgttggttgcact (TTGTATCTGTTGGTTGCACT; antisense; DNA, all phosphorothioate, methylation of C not given here) | + (“+” when the suppression rate was at least 30%)
15 | H170: ccttgatcagaaagcaaaca (dC*dC*dT*dT*dG*dA*dT*dC*dA*dG*dA*dA*dA*dG*dC*dA*dA*dA*dC*dA; antisense) | + (“+” when the suppression rate was at least 30%)
16 | H181: gccagatttctcccaggtgt (dG*dC*dC*dA*dG*dA*dT*dT*dT*dC*dT*dC*dC*dC*dA*dG*dG*dT*dG*dT; antisense) | ++ (“++” when the suppression rate was at least 50%)
17 | H093: gtccacatcctgacatgagt (dG*dT*dC*dC*dA*dC*dA*dT*dC*dC*dT*dG*dA*dC*dA*dT*dG*dA*dG*dT; antisense) | + (“+” when the suppression rate was at least 30%)
18 | H182: ccaaagcttcctggccagaa (dC*dC*dA*dA*dA*dG*dC*dT*dT*dC*dC*dT*dG*dG*dC*dC*dA*dG*dA*dA; antisense) | ++ (“++” when the suppression rate was at least 50%)
19 | H230: taggaaaactgttgacccca (dT*dA*dG*dG*dA*dA*dA*dA*dC*dT*dG*dT*dT*dG*dA*dC*dC*dC*dC*dA; antisense) | ++ (“++” when the suppression rate was at least 50%)
20 | H135: aacattctgacactgcagca (AACATTCTGACACTGCAGCA; antisense; DNA, all phosphorothioate, methylation of C not given here) | ++ (“++” when the suppression rate was at least 50%)
21 | H161: tacctgtgcaagtagacaga (dT*dA*dC*dC*dT*dG*dT*dG*dC*dA*dA*dG*dT*dA*dG*dA*dC*dA*dG*dA; antisense) | ++ (“++” when the suppression rate was at least 50%)
22 | H020: tcacccctcgggcctcgcag (TCACCCCTCGGGCCTCGCAG; antisense; DNA, all phosphorothioate, methylation of C not given here) | ++ (“++” when the suppression rate was at least 50%)
23 | H074: acaccatgggaaatgggtac (dA*dC*dA*dC*dC*dA*dT*dG*dG*dG*dA*dA*dA*dT*dG*dG*dG*dT*dA*dC; antisense) | + (“+” when the suppression rate was at least 30%)
24 | H240: acagatgcatgctatacgag (DNA dA*dC*dA*dG*dA*dT*dG*dC*dA*dT*dG*dC*dT*dA*dT*dA*dC*dG*dA*dG; antisense) | ++ (“++” when the suppression rate was at least 50%)
25 | H088: gagtccctgcacgctgttcc (dG*dA*dG*dT*dC*dC*dC*dT*dG*dC*dA*dC*dG*dC*dT*dG*dT*dT*dC*dC; antisense) | + (“+” when the suppression rate was at least 30%)
26 | H027: ttctttgctttcccgttgta (TTCTTTGCTTTCCCGTTGTA; antisense; DNA, all phosphorothioate, methylation of C not given here) | + (“+” when the suppression rate was at least 30%)
27 | H159: actgacggcagtagctcaaa (dA*dC*dT*dG*dA*dC*dG*dG*dC*dA*dG*dT*dA*dG*dC*dT*dC*dA*dA*dA; antisense) | ++ (“++” when the suppression rate was at least 50%)
28 | H006: tttccccccgtgtgtgtgcg (TTTCCCCCCGTGTGTGTGCG; antisense; DNA, all phosphorothioate, methylation of C not given here) | ++ (“++” when the suppression rate was at least 50%)
29 | H109: tcatcgcccaagtacacgtg (dT*dC*dA*dT*dC*dG*dC*dC*dC*dA*dA*dG*dT*dA*dC*dA*dC*dG*dT*dG; antisense) | ++ (“++” when the suppression rate was at least 50%)

Same assay, conditions: 200 nM; chimeric 2′-methoxy antisense oligonucleotides; RD cell

Row | Substance | suppression rate of expression, 200 nM
30 | H075-OMe1: chimeric antisense oligonucleotide TGCTGcaactgctgaACACC, uppercase 2′-methoxy nucleotides, lowercase phosphorothioate nucleotides (TGCTGCAACTGCTGAACACC; 2'-O-methyl at 1, 2, 3, 4, 5, 16, 17, 18, 19, 20, other sugars, backbone and T or U not given here; lowercase gap nucleotides phosphorothioate) | + (“+” when the suppression rate was at least 30%)

Reference: patent US20080292619A1, “Pharmaceutical Composition Containing Meltrin Antagonist” (MOCHIDA PHARMACEUTICAL CO., LTD., priority 2004, published 2008)
